From patent US10975087B2, “Solid forms of tetrahydropyranyl amino-pyrrolopyrimidinone compounds” (ArQule, Inc., priority 2018, dated 2021)

Tests used:
Type in all cases: physicochemical
[1] = Form conversion under ambient or vacuum drying conditions
Acetone solubility [2] = conditions: form of residual solid; amorphous input: Form 2 residual solid with additional peaks
Experimental: Aqueous and acetone solubility was carried out using 3-10 mg of material, depending on availability, and slurrying in 150-200 μL of acetone or 300 μL of deionized water. The samples were agitated at ambient temperature then filtered by centrifugation (0.22 μm nylon filter) after ca. 24 hours and the solids analyzed by XRPD as damp solids. The filtrates were analyzed by HPLC for concentration determination. The water solubility was too low for detection using the current analytical method.

Aqueous solubility = conditions: water, thermodynamic from solid, solvent addition method
[3] = Gravimetric vapor sorption (GVS)
Experimental: Approximately 10-20 mg of sample was placed into a mesh vapor sorption balance pan and loaded into an IGASorp Moisture Sorption Analyzer balance by Hiden Analytical. The sample was subjected to a ramping profile from 40-90% relative humidity (RH) at 10% increments, maintaining the sample at each step until a stable weight had been achieved (98% step completion). After completion of the sorption cycle, the sample was dried using the same procedure to 0% RH, and finally taken back to the starting point of 40% RH. Two cycles were performed. The weight change during the sorption/desorption cycles were plotted, allowing for the hygroscopic nature of the sample to be determined.

[4] = Dynamic vapor sorption (DVS); conditions: for Post-DVS XRPD analysis (form): after exposure to elevated humidity; for moisture uptake by DVS: at 90% RH
Experimental: Approximately 10-20 mg of sample was placed into a mesh vapor sorption balance pan and loaded into a DVS-1 dynamic vapor sorption balance by Surface Measurement Systems. […] After completion of the sorption cycle, the sample was dried using the same procedure to 0% RH and then a second sorption cycle back to 40% RH. Two cycles were performed. The weight change during the sorption/desorption cycles were plotted, allowing for the hygroscopic nature of the sample to be determined. XRPD analysis may be then carried out on any solid retained.

Acetone solubility [5] = conditions: organic solvent or mixture, thermodynamic from solid, partial dissolution, solvent addition method
[6] = Thermodynamic solubility pH measurements; conditions: respective buffer, 25° C., 48 hours
Experimental: After 2 hours at 25° C., the pH of each slurry was measured and the pH was adjusted, where required. After 24 hours at 25° C., the pH of each slurry was measured and the pH was adjusted, where required. After 48 hours at 25° C., the slurries were separated by centrifugation. The solids were analyzed by XRPD, while the pH of the separated liquors were also measured.

[7] = Karl Fischer coulometric titration (KF) water content
Experimental: Approximately 10-30 mg of solid material was accurately weighed into a vial. The solid was then manually introduced into the titration cell of a Mettler Toledo C30 Compact Titrator. The vial was back-weighed after the addition of the solid and the weight of the added solid entered on the instrument. Titration was initiated once the sample had fully dissolved in the cell. The water content was calculated automatically by the instrument as a percentage and the data printed.

[8] = Hydration studies in water/acetone mixtures; conditions: for Hydration study result (solid by XRPD): 5 days
Experimental: Hydration experiments were performed at 25° C. and 50° C. in water/acetone mixtures with the following water content (volume %): 2%, 5%, and 20%. The samples were prepared by adding 250 μL of the water/acetone mixture to 15 mg of the salt sample. The samples were stirred at 25° C. or at 50° C. After 2 days, the samples were inspected for the presence of solid. If solid was not observed, additional salt material was added to the dissolved samples. Samples were stirred for an additional 3 days. After 5 days, samples were filtered and the solid obtained was analyzed by XRPD.

[9] = Accelerated storage conditions (75% RH/40° C. for 72 hours), XRPD
[10] = 7 day stability testing, open vials at 40° C./75% RH, ambient and 80° C.; conditions: 40° C./75% RH, 80° C., and ambient temperature, 1 week
[11] = Salt disproportionation studies (slurry in deionized water); conditions: 48 hours
Experimental: Samples of salts described herein were prepared for disproportionation studies. Approximately 15 mg of the salt material was suspended in 4 mL of deionized water at ambient temperature (ca. 22° C.). The slurry of the salt was shaken at ambient temperature and analyzed after: 1 h, 24 h, and 48 h. Each sample was filtered using a centrifuge filter. The solid was analyzed by XRPD. pH measurements were performed for the solution (three pH measurements were carried out for each sample and the average pH was calculated).

Structure (SMILES): O=C(c1ccc(Oc2ccccc2)cc1Cl)c1c[nH]c2ncnc(N[C@@H]3CC[C@@H](CO)OC3)c12.O=S(=O)(O)c1cccc2c(S(=O)(=O)O)cccc12 [1,5-naphthalene disulfonic acid Form 2]
- form conversion under vacuum drying conditions [1]: converts 1,5-naphthalene disulfonic acid Form 4

Structure (SMILES): O=C(c1ccc(Oc2ccccc2)cc1Cl)c1c[nH]c2ncnc(N[C@@H]3CC[C@@H](CO)OC3)c12 [amorphous Compound A, (2-chloro-4-phenoxyphenyl)(4-(((3R,6S)-6-(hydroxymethyl)tetrahydro-2H-pyran-3-yl)amino)-7H-pyrrolo[2,3-d]pyrimidin-5-yl)methanone]
- Acetone solubility: residual solid (Acetone solubility [2]): (Form 2 residual
- Solubility (Aqueous solubility): < 10 mg/mL
- XRPD post GVS ([3]; cell wraps: Remained | unchanged): Remained
- GVS (hygroscopicity) ([3]; summary Table 11): 3.9% uptake
- hygroscopic nature by DVS [4]: hygroscopic
- Post-DVS XRPD analysis (form) [4]: remain amorphous
- moisture uptake by DVS [4]: 3.9%
- Solubility (Acetone solubility [5]): ≥ 16 mg/mL

Structure (SMILES): Cl.O=C(c1ccc(Oc2ccccc2)cc1Cl)c1c[nH]c2ncnc(N[C@@H]3CC[C@@H](CO)OC3)c12 [hydrochloride Form 1]
- form conversion under ambient conditions ([1]; ambient conditions): gradually converts to hydrochloride Form 2

Structure (SMILES): O=C(O)C(=O)O.O=C(c1ccc(Oc2ccccc2)cc1Cl)c1c[nH]c2ncnc(N[C@@H]3CC[C@@H](CO)OC3)c12 [oxalate Form 1]
- form conversion under vacuum drying conditions [1]: converts to oxalate Form 5

Structure (SMILES): O=C(c1ccc(Oc2ccccc2)cc1Cl)c1c[nH]c2ncnc(N[C@@H]3CC[C@@H](CO)OC3)c12.O=P(O)(O)O [phosphate Form 1]
- XRPD after thermodynamic solubility studies [6]: no change from the input material
- KF moisture (water) content [7]: 3.74%
- solid obtained in hydration study (XRPD) ([8]; 2% and 5% water in acetone, 25° C.): recovered
- solid obtained in hydration study (XRPD) ([8]; 2% water in acetone, 50° C.): potentially new form
- Hydration study result (solid by XRPD) ([8]; 2% water in water/acetone, 25° C., Form = form of the same salt): Form 1
- Hydration study result (solid by XRPD) ([8]; 2% water in water/acetone, 50° C., Form = form of the same salt): Form 1
- Hydration study result (solid by XRPD) ([8]; 5% water in water/acetone, 25° C., Form = form of the same salt): Form 1
- Hydration study result (solid by XRPD) ([8]; 5% water in water/acetone, 50° C., Form = form of the same salt): Form 6
- Hydration study result (solid by XRPD) ([8]; 20% water in water/acetone, 25° C.): Gum
- Hydration study result (solid by XRPD) ([8]; 20% water in water/acetone, 50° C.): Gum
- solid obtained in hydration study ([8]; the other experiments (remaining water contents/temperatures)): gum
- stability under accelerated storage conditions (XRPD) [9]: stable
- XRPD analysis after storage for 1 week [10]: no change in form from the input material
- Post-DVS XRPD analysis (form) [4]: no change in form from the input material
- moisture uptake by DVS [4]: ca. 3.2%
- XRPD after salt disproportionation study, 48 hours [11]: no change from the input material
